Measurements: patent US20260365670A1, “EGFR INHIBITORS AND USES THEREOF” (DIZAL (JIANGSU) PHARMACEUTICAL CO., LTD., priority 2022, published 2026)
Read-outs that look alike come from different tables or passages of the source.

Assays:
A-431 = assay: Cell proliferation GI50, A-431 cells (Table 6); format: cell-based; settings: Homo sapiens, A-431, A-431 cells
EGFR L858R = molecular target: T1, EGFR L858R (Homo sapiens, UniProt P00533, L858R); assay: Inhibition of EGFR L858R biochemical enzymatic activity (HTRF); settings: 1 mM ATP, 1 h, room temperature, read-out: IC50 (nM) @L858R
T1 construct: purchased Carna Bio
Procedure, shortened: (§1)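 For IC50 determination by four-parameter logistic fit, EDTA-quenched 1 h room-temperature reactions (1 mM ATP, 1 μM TK Substrate-biotin) were read by HTRF. The 665/615 nm emission ratio after 320 nm excitation served as the activity signal.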

PC-9 = assay: Cell proliferation assay, PC-9 cells (CellTiter-Glo, 72 hours); format: cell-based; settings: Homo sapiens, PC-9, 72 h, PC9 cells, CellTiter-Glo, read-out: PC9 GI50
Procedure, shortened: (§2)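 Seed Ba/F3 at 5000 cells/well and PC-9 at 500 cells/well (10% FBS RPMI1640); incubate overnight; add compound dilution series; read a G0 plate; incubate; read G3; GI50 from best-fit curve.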

EGFR[T790M/C797S/L858R] = molecular target: T2, EGFR[T790M/C797S/L858R] (Homo sapiens, UniProt P00533, C797S/L858R/T790M); assay: Inhibition of EGFR[T790M/C797S/L858R] biochemical enzymatic activity (HTRF); settings: EGFR T790M-C797S-L858R, 1 mM ATP, 1 h, room temperature, read-out: IC50 (nM) @T790M- C797S - L858R
T2 construct: purchased Carna Bio
Procedure, shortened: as §1

EGFR wild type = molecular target: T3, EGFR wild type (Homo sapiens, UniProt P00533); assay: Inhibition of EGFR wild type biochemical enzymatic activity (HTRF); settings: EGFR WT, 1 mM ATP, 1 h, room temperature, read-out: IC50 (nM) @WT
T3 construct: purchased Carna Bio
Procedure, shortened: as §1

EGFR L858R/T790M = molecular target: T4, EGFR L858R/T790M (Homo sapiens, UniProt P00533, L858R/T790M); assay: Inhibition of EGFR L858R/T790M biochemical enzymatic activity (HTRF); settings: EGFR L858R-T790M, 1 mM ATP, 1 h, room temperature, read-out: IC50 (nM) @L858R-T790M
T4 construct: purchased Carna Bio
Procedure, shortened: as §1

EGFR (C797S L858R) = molecular target: T5, EGFR (C797S L858R) (Homo sapiens, UniProt P00533, C797S/L858R); assay: Inhibition of EGFR (C797S L858R) biochemical enzymatic activity (HTRF); settings: EGFR L858-C797S, 1 mM ATP, 1 h, room temperature, read-out: IC50 (nM) @L858-C797S
T5 construct: purchased signalchem
Procedure, shortened: as §1

EGFR Exon19Del = molecular target: T6, EGFR Exon19Del (Homo sapiens, UniProt P00533, DEL746-750); assay: Inhibition of EGFR Exon19Del biochemical enzymatic activity (HTRF); settings: EGFR Del19, 1 mM ATP, 1 h, room temperature, read-out: IC50 @Del19
T6 construct: purchased Carna Bio
Procedure, shortened: as §1

EGFR Exon19Del/T790M = molecular target: T7, EGFR Exon19Del/T790M (Homo sapiens, UniProt P00533, DEL746-750/T790M); assay: Inhibition of EGFR Exon19Del/T790M biochemical enzymatic activity (HTRF); settings: EGFR Del19-T790M, 1 mM ATP, 1 h, room temperature, read-out: IC50 (nM) @Del19-T790M
T7 construct: purchased Carna Bio
Procedure, shortened: as §1

[1] = system: Ba/F3 cells expressing EGFR mutations; assay: Cell proliferation assay, Ba/F3 cells expressing EGFR mutations (CellTiter-Glo, 72 hours); format: cell-based; settings: Mus musculus, BaF3, 72 h, CellTiter-Glo
Procedure, shortened: as §2

[2] = molecular target: T8, EGFR[T790M/C797S/d746-750] (Homo sapiens, UniProt P00533, C797S/DEL746-750/T790M); assay: Inhibition of EGFR[T790M/C797S/d746-750] biochemical enzymatic activity (HTRF); settings: EGFR T790M-C797S-Del19, 1 mM ATP, 1 h, room temperature, read-out: IC50 (nM) @T790M - C797S - Del19
T8 construct: purchased Carna Bio
Procedure, shortened: as §1

EGFR (d746-750 C797S) = molecular target: T9, EGFR (d746-750 C797S) (Homo sapiens, UniProt P00533, C797S/DEL746-750); assay: Inhibition of EGFR (d746-750 C797S) biochemical enzymatic activity (HTRF); settings: EGFR Del19-C797S, 1 mM ATP, 1 h, room temperature, read-out: IC50 (nM) @Del19-C797S
T9 construct: purchased signalchem
Procedure, shortened: as §1

[3] = BaF3 cells, EGFR DEL19-C797S, read-out: DEL19-C797S/BaF3 GI50
[4] = BaF3 cells, EGFR DEL19-T790-C797S, read-out: DEL19-T790-C797S/BaF3 GI50
[5] = BaF3 cells, EGFR L858R, read-out: L858R/BaF3 GI50
[6] = BaF3 cells, EGFR L858R-C797S, read-out: L858R-C797S/BaF3 GI50
[7] = BaF3 cells, EGFR L858R-T790-C797S, read-out: L858R-T790-C797S/BaF3 GI50
[8] = BaF3 cells, EGFR L858R-T790M, read-out: L858R-T790M/BaF3 GI50
[9] = EGFR DEL19-T790M, read-out: DEL19-T790M GI50

T1 sequence (P00533 25-1210 L858R): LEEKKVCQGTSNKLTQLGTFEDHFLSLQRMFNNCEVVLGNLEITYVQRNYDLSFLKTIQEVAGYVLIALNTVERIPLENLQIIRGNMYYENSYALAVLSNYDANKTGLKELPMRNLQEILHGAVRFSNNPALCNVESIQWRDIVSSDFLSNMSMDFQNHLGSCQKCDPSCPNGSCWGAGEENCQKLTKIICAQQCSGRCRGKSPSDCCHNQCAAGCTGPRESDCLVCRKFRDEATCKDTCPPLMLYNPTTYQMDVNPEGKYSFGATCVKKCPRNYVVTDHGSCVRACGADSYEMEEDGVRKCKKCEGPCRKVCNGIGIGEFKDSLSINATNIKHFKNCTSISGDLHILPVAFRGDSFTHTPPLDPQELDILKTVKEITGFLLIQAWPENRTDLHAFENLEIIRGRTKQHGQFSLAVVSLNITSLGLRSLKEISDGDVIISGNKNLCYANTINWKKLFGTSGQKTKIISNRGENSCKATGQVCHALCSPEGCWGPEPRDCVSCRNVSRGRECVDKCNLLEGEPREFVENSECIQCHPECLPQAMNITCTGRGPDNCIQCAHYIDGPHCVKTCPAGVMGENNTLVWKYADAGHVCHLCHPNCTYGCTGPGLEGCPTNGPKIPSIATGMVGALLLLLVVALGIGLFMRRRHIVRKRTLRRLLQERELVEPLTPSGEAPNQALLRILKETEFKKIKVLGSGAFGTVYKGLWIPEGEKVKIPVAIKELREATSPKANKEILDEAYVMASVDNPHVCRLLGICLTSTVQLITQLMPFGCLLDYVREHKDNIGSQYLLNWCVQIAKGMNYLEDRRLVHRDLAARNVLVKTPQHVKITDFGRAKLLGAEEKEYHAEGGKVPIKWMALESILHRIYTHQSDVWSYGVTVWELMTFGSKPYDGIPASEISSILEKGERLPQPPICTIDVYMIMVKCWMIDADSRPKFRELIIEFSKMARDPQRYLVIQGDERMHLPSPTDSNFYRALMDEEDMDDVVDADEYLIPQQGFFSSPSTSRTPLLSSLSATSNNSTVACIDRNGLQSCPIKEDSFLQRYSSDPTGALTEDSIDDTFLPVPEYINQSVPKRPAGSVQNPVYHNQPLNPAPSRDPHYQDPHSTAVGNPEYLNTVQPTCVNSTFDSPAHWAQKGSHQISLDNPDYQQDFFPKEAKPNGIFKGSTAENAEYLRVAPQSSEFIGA
T2 sequence (P00533 25-1210 T790M/C797S/L858R): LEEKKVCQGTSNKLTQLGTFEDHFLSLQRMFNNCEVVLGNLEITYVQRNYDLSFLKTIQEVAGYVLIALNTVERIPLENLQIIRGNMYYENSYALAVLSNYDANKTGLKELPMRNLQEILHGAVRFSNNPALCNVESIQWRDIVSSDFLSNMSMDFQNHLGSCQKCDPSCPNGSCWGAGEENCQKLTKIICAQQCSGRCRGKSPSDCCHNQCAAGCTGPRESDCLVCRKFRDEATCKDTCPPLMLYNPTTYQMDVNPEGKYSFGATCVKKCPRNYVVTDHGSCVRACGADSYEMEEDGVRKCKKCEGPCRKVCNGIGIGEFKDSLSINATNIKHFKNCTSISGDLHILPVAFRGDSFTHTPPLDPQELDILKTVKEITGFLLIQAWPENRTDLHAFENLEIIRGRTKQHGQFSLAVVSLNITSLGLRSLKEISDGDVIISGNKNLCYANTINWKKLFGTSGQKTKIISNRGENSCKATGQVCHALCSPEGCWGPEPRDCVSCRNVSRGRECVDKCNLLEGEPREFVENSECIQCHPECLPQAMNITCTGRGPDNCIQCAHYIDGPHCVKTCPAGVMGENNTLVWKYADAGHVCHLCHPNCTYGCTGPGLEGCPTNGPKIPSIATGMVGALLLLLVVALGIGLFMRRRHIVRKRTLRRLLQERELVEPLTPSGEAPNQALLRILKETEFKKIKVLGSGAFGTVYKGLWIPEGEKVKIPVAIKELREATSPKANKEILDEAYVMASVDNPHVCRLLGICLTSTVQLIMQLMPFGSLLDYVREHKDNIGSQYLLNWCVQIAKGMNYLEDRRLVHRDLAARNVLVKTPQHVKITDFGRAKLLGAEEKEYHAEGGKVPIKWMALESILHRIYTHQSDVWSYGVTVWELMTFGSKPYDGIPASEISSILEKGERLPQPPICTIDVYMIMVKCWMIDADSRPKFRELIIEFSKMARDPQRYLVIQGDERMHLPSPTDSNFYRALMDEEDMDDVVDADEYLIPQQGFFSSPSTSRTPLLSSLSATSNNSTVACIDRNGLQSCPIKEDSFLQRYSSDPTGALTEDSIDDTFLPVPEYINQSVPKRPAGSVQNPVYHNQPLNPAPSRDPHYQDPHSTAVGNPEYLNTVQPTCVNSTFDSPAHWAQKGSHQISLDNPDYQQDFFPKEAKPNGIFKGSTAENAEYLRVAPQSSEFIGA
T3 sequence (P00533 25-1210): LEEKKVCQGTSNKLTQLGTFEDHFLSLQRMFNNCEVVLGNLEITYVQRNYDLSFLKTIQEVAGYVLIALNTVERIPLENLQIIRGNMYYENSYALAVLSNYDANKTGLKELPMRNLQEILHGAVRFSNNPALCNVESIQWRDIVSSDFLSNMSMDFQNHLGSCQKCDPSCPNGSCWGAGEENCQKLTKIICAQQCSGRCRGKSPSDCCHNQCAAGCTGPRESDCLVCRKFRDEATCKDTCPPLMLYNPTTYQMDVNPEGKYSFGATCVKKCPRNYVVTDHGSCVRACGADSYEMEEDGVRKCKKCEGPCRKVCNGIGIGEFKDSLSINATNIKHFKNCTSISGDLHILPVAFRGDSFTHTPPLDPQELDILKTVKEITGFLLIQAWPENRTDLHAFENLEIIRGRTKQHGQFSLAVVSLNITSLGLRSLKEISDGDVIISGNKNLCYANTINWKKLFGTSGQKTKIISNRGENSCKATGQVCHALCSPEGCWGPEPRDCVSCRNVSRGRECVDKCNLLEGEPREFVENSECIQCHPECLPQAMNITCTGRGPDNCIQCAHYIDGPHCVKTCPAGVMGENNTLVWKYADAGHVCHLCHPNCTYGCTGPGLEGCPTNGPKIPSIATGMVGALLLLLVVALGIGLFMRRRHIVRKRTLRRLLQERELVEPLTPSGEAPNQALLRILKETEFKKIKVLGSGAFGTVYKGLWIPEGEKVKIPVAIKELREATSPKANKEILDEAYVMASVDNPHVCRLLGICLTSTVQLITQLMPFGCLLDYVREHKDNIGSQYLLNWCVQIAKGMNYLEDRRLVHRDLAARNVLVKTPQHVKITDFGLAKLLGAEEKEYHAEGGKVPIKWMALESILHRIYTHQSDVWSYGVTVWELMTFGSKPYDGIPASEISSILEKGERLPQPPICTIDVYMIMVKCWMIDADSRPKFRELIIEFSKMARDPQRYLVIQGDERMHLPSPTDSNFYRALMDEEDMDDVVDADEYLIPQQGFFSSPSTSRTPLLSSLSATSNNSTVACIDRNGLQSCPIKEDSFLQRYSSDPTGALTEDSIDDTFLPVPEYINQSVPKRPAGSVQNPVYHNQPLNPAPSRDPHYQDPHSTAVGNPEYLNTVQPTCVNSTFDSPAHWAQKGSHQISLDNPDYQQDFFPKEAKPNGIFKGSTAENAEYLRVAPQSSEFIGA
T4 sequence (P00533 25-1210 T790M/L858R): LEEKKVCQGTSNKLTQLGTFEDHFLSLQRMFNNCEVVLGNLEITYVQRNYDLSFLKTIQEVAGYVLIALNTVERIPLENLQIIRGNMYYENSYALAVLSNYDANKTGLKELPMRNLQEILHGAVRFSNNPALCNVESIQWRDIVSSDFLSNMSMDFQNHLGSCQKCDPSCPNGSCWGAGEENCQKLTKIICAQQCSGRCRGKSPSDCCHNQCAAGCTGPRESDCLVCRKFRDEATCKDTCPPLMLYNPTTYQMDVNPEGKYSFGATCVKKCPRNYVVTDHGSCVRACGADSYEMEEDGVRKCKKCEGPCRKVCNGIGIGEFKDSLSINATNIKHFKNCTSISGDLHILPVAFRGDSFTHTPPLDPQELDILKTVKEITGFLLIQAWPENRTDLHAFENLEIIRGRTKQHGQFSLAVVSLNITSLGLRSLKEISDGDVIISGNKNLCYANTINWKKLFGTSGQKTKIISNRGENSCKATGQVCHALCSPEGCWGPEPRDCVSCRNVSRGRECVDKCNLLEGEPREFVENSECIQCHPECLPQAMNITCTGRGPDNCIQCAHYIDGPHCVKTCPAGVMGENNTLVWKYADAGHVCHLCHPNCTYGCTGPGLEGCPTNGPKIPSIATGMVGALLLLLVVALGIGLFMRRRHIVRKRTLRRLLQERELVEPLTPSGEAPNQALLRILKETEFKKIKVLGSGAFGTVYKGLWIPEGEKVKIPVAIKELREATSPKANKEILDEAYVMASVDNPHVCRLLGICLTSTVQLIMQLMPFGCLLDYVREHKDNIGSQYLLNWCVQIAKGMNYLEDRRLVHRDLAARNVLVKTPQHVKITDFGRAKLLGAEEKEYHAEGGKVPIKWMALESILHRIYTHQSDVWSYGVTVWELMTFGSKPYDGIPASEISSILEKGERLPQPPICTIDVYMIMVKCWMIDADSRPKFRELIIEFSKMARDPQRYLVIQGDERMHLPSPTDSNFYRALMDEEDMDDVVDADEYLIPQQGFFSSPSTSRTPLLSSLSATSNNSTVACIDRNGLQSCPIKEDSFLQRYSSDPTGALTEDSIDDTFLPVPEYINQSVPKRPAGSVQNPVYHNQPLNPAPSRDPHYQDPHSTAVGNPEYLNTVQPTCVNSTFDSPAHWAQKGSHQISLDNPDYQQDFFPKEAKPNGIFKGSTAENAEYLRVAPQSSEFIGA

Row | Structure (SMILES) | GI50 (A-431) [nM] | IC50 (EGFR L858R) [nM] | GI50 (PC-9) [nM] | IC50 (EGFR[T790M/C797S/L858R]) [nM] | IC50 (EGFR wild type) [nM] | IC50 (EGFR L858R/T790M) [nM] | IC50 (EGFR (C797S L858R)) [nM] | IC50 (EGFR Exon19Del) [nM] | IC50 (EGFR Exon19Del/T790M) [nM] | GI50 [1, 3] [nM] | GI50 [1, 4] [nM] | GI50 [1, 5] [nM] | GI50 [1, 6] [nM] | GI50 [1, 7] [nM] | GI50 [1, 8] [nM] | GI50 [1, 9] [nM] | IC50 [2] [nM] | IC50 (EGFR (d746-750 C797S)) [nM]
1 | C[C@@H]1CCCOc2c(cnn2C)-c2cc(cn(C)c2=O)C(=O)Nc2nc3ccc(N4CCN(C5CC5)CC4)cc3n2C1 [Example A48] | 573 | 40 | 38 | 4.4 | 2250 | 5 | 28 | 3.1 | 2.8 | 9.4 | 48 | 20 | 26 | 21 | 94 | 53 | 3.1 | 2.1
2 | CCN1CCN(c2ccc3nc4n(c3c2)C[C@H](C)CCCOc2c(cnn2C)-c2cc(cn(C)c2=O)C(=O)N4)CC1 [Example A49] | 251 | 45 | 12 | 5.1 | 694 | 8.1 | 16 | 5.5 | 6 | 2 | 12 | 5.7 | 7 | 5.3 | 72 | 18 | 4.9 | 2.8
3 | CC(C)N1CCN(c2ccc3nc4n(c3c2)C[C@H](C)CCCOc2c(cnn2C)-c2cc(cn(C)c2=O)C(=O)N4)CC1 [Example A50] | 126 | 15 | 6.3 | 4.8 | 124 | 6.7 | 7.4 | 2.4 | 3.8 | 1 | 5.3 | 2.7 | 2.4 | 1.9 | 9.5 | 7.5 | 4 | 1.8
4 | C[C@@H]1CCCOc2c(cnn2C)-c2cc(cn(C)c2=O)C(=O)Nc2nc3ccc(N4CCN(CC(F)(F)F)CC4)cc3n2C1 [Example A53] | 639 | 462 | 51 | 21 | > 5000 | 70 | 135 | 15 | 12 | 7.4 | 27 | 28 | 34 | 35 | 51 | 49 | 13 | 7.2
5 | C[C@@H]1CCCOc2c(cnn2C)-c2cc(cn(C)c2=O)C(=O)Nc2nc3ccc(N4CCN(C(=O)OC(C)(C)C)CC4)cc3n2C1 [Example A54] | 1910 | 3040 | 245 | 10 | > 5000 | 213 | 887 | 118 | 31 | 32 | 104 | 192 | 188 | 228 | 288 | 153 | 31 | 41
6 | C[C@@H]1CCCOc2c(cnn2C)-c2cc(cn(C)c2=O)C(=O)Nc2nc3ccc(N4CCNCC4)cc3n2C1 [Example A55] | 1280 | 16 | 51 | 7.2 | 103 | 8.4 | 8.4 | 3.7 | 3.7 | 4.6 | 25 | 26 | 31 | 29 | 52 | 36 | 4.4 | 1.8
7 | C[C@@H]1CCCNc2c(cnn2C)-c2cc(cn(C)c2=O)C(=O)Nc2nc3ccc(N4CCN(C)CC4)cc3n2C1 [Example A57] | 8300 | > 5000 | 194 | > 5000 | > 5000 | 4530 | 2650 | 189 | 112 | 64 | 534 | 790 | 474 | 716 | 356 | 612 | 65 | 175

Further lines, results first:

Row | GI50 (A-431) [nM] | IC50 (EGFR L858R) [nM] | GI50 (PC-9) [nM] | IC50 (EGFR[T790M/C797S/L858R]) [nM] | IC50 (EGFR wild type) [nM] | IC50 (EGFR L858R/T790M) [nM] | IC50 (EGFR (C797S L858R)) [nM] | IC50 (EGFR Exon19Del) [nM] | IC50 (EGFR Exon19Del/T790M) [nM] | GI50 [1, 3] [nM] | GI50 [1, 4] [nM] | GI50 [1, 5] [nM] | GI50 [1, 6] [nM] | GI50 [1, 7] [nM] | GI50 [1, 8] [nM] | GI50 [1, 9] [nM] | IC50 [2] [nM] | IC50 (EGFR (d746-750 C797S)) [nM] | Structure (SMILES)
8 | 1040 | 94 | 62 | 24 | 1830 | 33 | 31 | 13 | 12 | 7.6 | 35 | 46 | 38 | 36 | 65 | 65 | 12 | 4.7 | C[C@@H]1CCCOc2c(cnn2C)-c2cc(cn(C)c2=O)C(=O)Nc2nc3ccc(N4CCC(N(C)C)C(F)(F)C4)cc3n2C1 (stereo partly drawn) [Example A51]
9 | 480 | 6.3 | 15.4 | 3.9 | 54 | 6.6 | 4.7 | 1.3 | 3.5 | 1.3 | 6.3 | 8.1 | 8.4 | 9.6 | 13.1 | 9.6 | 3.4 | 1.4 | C[C@@H]1CCCOc2c(cnn2C)-c2cc(cn(C)c2=O)C(=O)Nc2nc3ccc(N4CCC5(CC4)CCN5C)cc3n2C1 [Example A52]
10 | 436 | 35 | 52 | 19 | 501 | 32 | 22 | 9.1 | 17 | 3.4 | 11 | 12 | 12 | 10 | 26 | 17 | 16 | 5.5 | C[C@@H]1CCCOc2c(cnn2C)-c2cc(cn(C)c2=O)C(=O)Nc2nc3ccc(N4CC5(CCN(C)CC5(F)F)C4)cc3n2C1 [Example A56]
11 | 1750 | 26 | 325 | 22 | 220 | 34 | 19 | 9.2 | 16 | 2 | 28 | 29 | 20 | 37 | 20 | 20 | 15 | 4.9 | C[C@@H]1CCCOc2c(cnn2C)-c2cc(cn(C)c2=O)C(=O)Nc2nc3ccc(N4CC(F)(CN(C)C)C4)cc3n2C1 [Example A58]
